From patent US8664276B2, “Stilbene analogs and methods of treating cancer” (University of Kentucky Research Foundation, priority 2011, dated 2014)
Entries after “also recorded” stand apart in the source; their conditions may differ.

Tests used:
LS174 CRC cells = assay: CRC cell proliferation assay (Vi-Cell); type: cell-based; settings: for colon cancer cell proliferation, effectiveness versus resveratrol and 4r: FIG. 14
Protocol: Luciferase and cell proliferation assay. HEK293T cells were transiently transfected in a 12-well plate with 0.2 μg of the Super8xTOPFlash reporter and 0.05 μg of Renilla luciferase reporter. Culture medium was changed after 12 h. After 6 h, cells were treated with DMSO or Wnt inhibitors for 12 h, and then treated with 25 mM LiCl or Wnt conditioned medium. After 12 h, cells were harvested and luciferase activity measured by Dual-luciferase Reporter Assay System (Promega, Madison Wis.). All conditions were done in triplicate and each experiment was carried out at least two times. For cell proliferation assay, CRC cells were treated with DMSO or inhibitors for 2d and 4d. The cell numbers and viability were analyzed by Vi-Cell Cell Viability Analyzer.
(§1) Western blot and cell proliferation assay. The activity of fluorinated N,N-dialkylaminostilbenes (FIDAS or FIDAS agents) on Wnt signaling activity in cancer cells were analyzed by Western blot with antibodies against Wnt target genes, such as c-Myc, Axin2. The effects of FlDAS agents on cancer cell growth were analyzed using Cell Viability Analyzer (Beckman Coulter, Vi-Cell XR). These assays have been described previously (see Zhang et al., J. of Med. Chem. 54, 1288-1297 (2011)).

liver cancer cells = assay: Liver cancer cell proliferation; type: cell-based; settings: FIG. 15
Protocol: as §1
As previously shown, several metabolites of the halogenated stilbenes of the present disclosure were synthesized (Example 2 and FIG. 3). In this study, the effects of some of these metabolites on cell proliferation were studied.

[1] = system: Wnt target genes, Axin2 and c-Myc; assay: Western blot of Wnt target proteins in LS174 CRC cells; type: cell-based
Protocol: Western blot. Western blots were performed using the following antibodies: β-catenin (Sigma, C2206), c-Myc (Epitomics, 1472-1), Axin2 (Cell Signaling, 2151), β-Actin (Sigma, A1978), TCF4 (Epitomics, 2114-1) and pygopus2 (Santa Cruz, sc-74878), Cyclin D1 (Cell signaling, 2926).
Cyclin B1 levels were decreased, whereas p21^WAF1/CIP1 levels increased, consistent with the fact that p21^WAF1/CIP1 expression is repressed by c-Myc. β-catenin levels were not affected by resveratrol. Next, the mRNA levels of β-catenin target genes were analyzed using RT-PCR. Expression of survivin, Lgr5, CD44, and c-Myc were decreased in resveratrol-treated cells.
A panel of stilbene analogs was designed and synthesized (FIGS. 2, 3, 5A and 6A). […] However, the solubility of 4d was poor and it was not effective below 10 μM concentrations (data not shown). To improve its solubility and activity, compound 4d was modified with 2′-fluoro 4e, 3′-fluoro 4f and 4′-fluoro 4g substituents (FIG. 5D). Both compounds 4e and 4f had good activity at 10 μM, (E)-4-(2-fluorostyryl)-N,N-dimethylaniline.
as §1

Wnt signaling = assay: TopFlash luciferase reporter assay in HEK293T cells; type: cell-based
Protocol: Luciferase and cell proliferation assay. HEK293T cells were transiently transfected in a 12-well plate with 0.2 μg of the Super8xTOPFlash reporter and 0.05 μg of Renilla luciferase reporter. Culture medium was changed after 12 h. After 6 h, cells were treated with DMSO or Wnt inhibitors for 12 h, and then treated with 25 mM LiCl or Wnt conditioned medium. After 12 h, cells were harvested and luciferase activity measured by Dual-luciferase Reporter Assay System (Promega, Madison Wis.). All conditions were done in triplicate and each experiment was carried out at least two times. For cell proliferation assay, CRC cells were treated with DMSO or inhibitors for 2d and 4d. The cell numbers and viability were analyzed by Vi-Cell Cell Viability Analyzer. To identify Wnt pathway inhibitors for CRC prevention and treatment, a number of anti-cancer agents from plants were screened using the TopFlash reporter assay. The TopFlash reporter was transfected into HEK293T cells, and the cells were treated with Wnt3A-conditioned medium in order to activate the luciferase reporter. […] To determine if resveratrol regulates β-catenin degradation, the cells were treated with 25 mM LiCl, which inhibits GSK-3 and stabilizes β-catenin. In this assay, LiCl activated the reporter more strongly than Wnt3A conditioned medium. […] Emodin is an anti-cancer agent from plants; it exists in many unpurified resveratrol products. Emodin had no effect on Wnt signaling. See Zhang et al., J. of Med. Chem. 54, 1288-1297 (2011).

| melting point [°C] | SMILES | Wnt inhibitory activity in Western blot, qualitative or relative to a comparator ([1]; CRC cells) | other results |
| --- | --- | --- | --- |
| 82 to 84 | C[N+](C)([O-])c1ccc(/C=C/c2c(F)cccc2Cl)cc1 [4aa, (E)-4-(2-chloro-6-fluorostyryl)-N,N-dimethylaniline oxide] |  | colon cancer cell proliferation, effectiveness versus resveratrol and 4r (LS174 CRC cells): significantly more effective than resveratrol, as well as compound 4r; liver cancer cell proliferation, effectiveness versus resveratrol and 4r (liver cancer cells): significantly more effective than resveratrol, as well as compound 4r |
| 124 to 126 | CN(C)c1ccc(/C=C/c2ccccc2F)cc1 [4e, (E)-4-(2-Fluorostyryl)-N,N-dimethylaniline] | best among all of the monofluoro-substituted compounds | CRC cell growth inhibition compared with other compounds (LS174 CRC cells; cell proliferation assay): significantly better inhibitor; repression of Wnt target genes at 10 μM ([1]; CRC cells): good activity |
| 147 to 148 | CN(C)c1ccc(/C=C/c2cccc(F)c2)cc1 [4f, (E)-4-(3-Fluorostyryl)-N,N-dimethylaniline] |  | repression of Wnt target genes at 10 μM ([1]; CRC cells): good activity |
| 142 to 144 | CN1CCN(c2ccc(/C=C/c3ccccc3F)cc2)CC1 [4j, (E)-1-(4-(2-Fluorostyryl)phenyl)-4-methylpiperazine] |  |  |
| 56 to 58 | CN(C)c1ccc(/C=C/c2ccccc2F)c2ccccc12 [4k, (E)-4-(2-Fluorostyryl)-N,N-dimethylnaphthalen-1-amine] |  |  |
| 139 to 140 | CN(C)c1ccc(/C=C/c2ccc(F)cc2F)cc1 [4n, (E)-4-(2,4-Difluorostyryl)-N,N-dimethylaniline] |  |  |
| 146 to 147 | CN(C)c1ccc(/C=C/c2cc(F)ccc2F)cc1 [4o, (E)-4-(2,5-Difluorostyryl)-N,N-dimethylaniline] | more active than compound 4e | repression of Wnt target genes at 10 μM ([1]; CRC cells): repress Wnt target genes |
| 69 to 71 | CN(C)c1cccc(/C=C/c2c(F)cccc2F)c1 [4q, (E)-3-(2,6-Difluorostyryl)-N,N-dimethylaniline] | not as active as compound 4r |  |
| 70 to 71 | CCN(CC)c1ccc(/C=C/c2c(F)cccc2F)cc1 [4s, (E)-4-(2,6-Difluorostyryl)-N,N-diethylaniline] | slightly less active than compound 4r; also recorded: active Wnt inhibitor |  |
| 159 to 160 | CN(C)c1ccc(/C=C/c2ccc(F)c(F)c2)cc1 [4t, (E)-4-(3,4-Difluorostyryl)-N,N-dimethylaniline] |  |  |
| 136 to 137 | CN(C)c1ccc(/C=C/c2cc(F)cc(F)c2)cc1 [4u, (E)-4-(3,5-Difluorostyryl)-N,N-dimethylaniline] |  |  |
| 91 to 92 | CN(C)c1ccc(/C=C/c2c(F)ccc(F)c2F)cc1 [4v, (E)-N,N-Dimethyl-4-(2,3,6-trifluorostyryl)aniline] | no significant improvements over compound 4r | repression of Wnt target genes at 10 μM ([1]; CRC cells): active |
| 127 to 128 | CN(C)c1ccc(/C=C/c2c(F)cc(F)cc2F)cc1 [4w, (E)-N,N-Dimethyl-4-(2,4,6-trifluorostyryl)aniline] | no significant improvements over compound 4r | repression of Wnt target genes at 10 μM ([1]; CRC cells): active |
| 42 to 44 | CN(C)c1ccc(/C=C/c2c(F)cccc2Cl)cc1 [4x, (E)-4-(2-chloro-6-fluorostyryl)-N,N-dimethylaniline] |  |  |
| 96 to 97 | CN(C)c1ccc(/C=C/c2c(Cl)cccc2Cl)cc1 [4y, (E)-4-(2,6-dichlorostyryl)-N,N-dimethylaniline] |  |  |
| 100 to 103 | C[N+](C)([O-])c1ccc(/C=C/c2c(F)cccc2F)cc1 [4z, (E)-4-(2,6-difluorostyryl)-N,N-dimethylaniline oxide] |  |  |

The remaining lines, values behind:

| SMILES | melting point [°C] | Wnt inhibitory activity in Western blot, qualitative or relative to a comparator ([1]; CRC cells) | other results |
| --- | --- | --- | --- |
| COc1ccc(/C=C/c2ccccc2)cc1 [4b, (E)-4-Methoxystilbene] | 136 to 137 |  |  |
| C[N+](C)([O-])c1ccc(/C=C/c2c(Cl)cccc2Cl)cc1 [4bb, (E)-4-(2,6-dichlorostyryl)-N,N-dimethylaniline oxide] | 80 to 82 |  |  |
| Nc1ccc(C=Cc2ccccc2)cc1 [4c, 4-aminostilbene, reference compound] |  |  | repression of Wnt target genes at 30 μM ([1]; 30 μM, CRC cells): represses Wnt target genes |
| CNc1ccc(C=Cc2c(Cl)cccc2Cl)cc1 [4ee, (E and Z)-4-(2,6-dichlorostyryl)-N-methylaniline] |  |  | colon cancer cell proliferation, effectiveness versus resveratrol and 4r (LS174 CRC cells): significantly more effective than resveratrol, as well as compound 4r; liver cancer cell proliferation, effectiveness versus resveratrol and 4r (liver cancer cells): significantly more effective than resveratrol, as well as compound 4r |
| CN(C)c1ccc(/C=C/c2ccc(F)cc2)cc1 [4g, (E)-4-(4-Fluorostyryl)-N,N-dimethylaniline] | 197 to 198 |  |  |
| CCN(CC)c1ccc(/C=C/c2ccccc2F)cc1 [4h, (E)-4-(2-Fluorostyryl)-N,N-diethylaniline] | 78 to 79 | not as potent as compound 4e | repression of Wnt target genes at 10 μM ([1]; CRC cells): active |
| Fc1ccccc1/C=C/c1ccc(N(c2ccccc2)c2ccccc2)cc1 [4i, (E)-4-(2-Fluorostyryl)-N,N-diphenylaniline] | 114 to 115 |  | repression of Wnt target genes at 10 μM ([1]; CRC cells): inactive |
| CN(C)c1ccc(/C=C/c2cccc(F)c2F)cc1 [4m, (E)-4-(2,3-Difluorostyryl)-N,N-dimethylaniline] | 132 to 133 | more active than compound 4e | repression of Wnt target genes at 10 μM ([1]; CRC cells): repress Wnt target genes |
| CN(C)c1ccccc1/C=C/c1c(F)cccc1F [4p, (E)-2-(2,6-Difluorostyryl)-N,N-dimethylaniline] |  | not as active as compound 4r |  |
| CN(C)c1ccc(CCc2c(F)cccc2F)cc1 [5r, (E)-4-(2,6-Difluorophenethyl)-N,N-dimethylaniline] |  | the activity was lost |  |
| Cc1cc(O)c2c(c1)C(=O)c1cc(O)cc(O)c1C2=O [Emodin] |  |  | effect on Wnt signaling (Wnt signaling): no effect |
| Oc1ccc(/C=C\c2cc(O)cc(O)c2)cc1 [cis- or (Z)-resveratrol, reference compound] |  |  | protein levels of c-Myc and Cyclin D1 ([1]; LS174 CRC cells): reduced by resveratrol but not its isomer |
